Where a SMILES comes first, the peptide text is derived from it. [ ]: non-standard residue; d: D form. The star is where a group is joined. Stearoyl = CCCCCCCCCCCCCCCCCC(=O)*
Tests used:
[1] = biological target: T1, human serum albumin (HSA) (Homo sapiens, UniProt P02768); assay: Intrinsic HSA fluorescence quenching; format: binding; details: HSA 5 μM, pH 7.4, 25 °C
T1 construct: purchased Calbiochem (Merck, Germany)
Description: Fluorescence measurements were conducted on a Hitachi F-4500 spectrofluorometer with a slit width of 5 nm (excitation) and 5 nm (emission). All measurements were performed at 25 °C in a 1 cm path length quartz cell. Samples were excited at 280 nm and the fluorescence intensity was measured between 300–400 nm. Human serum albumin (5 μM) was dissolved in 10 mM HEPES/100 mM NaCl solution (pH 7.4), and then titrated with the stock solution of peptides prepared in the same buffer. The background fluorescence spectra were recorded and subtracted from the ones collected from the peptide-containing samples.

[2] = biological target: T1, human serum albumin (HSA); assay: Surface plasmon resonance on surface-immobilized HSA; format: binding; details: HBS-EP buffer, 0.1-10 μM peptide
Description: Briefly, HSA was first immobilized on CM5 sensor chips using the standard amine coupling protocol provided by manufacturer. The carboxymethylated dextran surface was then activated by injecting 45 μL of the solution containing 0.2 M N-ethyl-N’-(3-dimethylaminopropyl) carbodiimide hydrochloride and 0.05 M N-hydroxy succinimide. Subsequently, HSA and the control antibody were dissolved in 10 mM Na-citrate solution (pH 5.0, 50 μg/ml) and then injected until the desired amount of HSA and control antibody were coupled (8000 RUs). At this point, a buffer with higher ionic strength (HBS-EP, 0.01 M Hepes, pH = 7.4, 0.15 M NaCl, 3 mM EDTA, 0.005% surfactant) was used to wash off the ligands bound non-covalently. Finally, the 1 M ethanolamine hydrochloride solution (pH 8.5) was employed to cap the free NHS esters present on the sensor surface. […] All samples were injected onto the surface of HSA and control antibody over 3 minutes at a flow rate of 30 μL/min, followed by a dissociation period of 15 min. The 2.5 μM sample was subject to this protocol twice. Sensorgrams were obtained for each peptide concentration, respectively.

rat thrombin = biological target: T2, rat thrombin (Rattus norvegicus, UniProt P18292); assay: Inhibition of rat thrombin-catalyzed hydrolysis of Chromozym TH; format: biochemical; details: 25 °C, pH 7.4
T2 construct: purchased Sigma

IVC thrombosis = assay: Inferior vena cava (IVC) thrombosis in rats; format: in vivo, rat
Description: Specifically, a laparotomy with ligation of the IVC below the renal veins and all visible side branches was first performed. 20 min or 5 hours after the administration of peptide or saline, the thrombosis in the IVC was carefully dissected and weighted after removing blood residual.

rat plasma = assay: TT, PT and APTT of rat blood after administration; format: in vivo
Description: Forty-eight male SD rats (180 ~ 220 g) were randomly divided into six groups (n = 8) and anesthetized by i.p.20% ethyl urethane (1 g·kg^−1). […] Blood samples were obtained from the abdominal aorta, and then mixed with 3.8% sodium citrate solution in a ratio of 9:1 (v/v). The resulting samples were centrifuged at 3000 rpm for 15 min at 18 °C. TT, PT and APTT were determined according to the kit protocol (Sunbio Ltd., Shanghai) on a C2000 coagulometer (Precil, Beijing).

[3] = tested on: rat carotid artery thrombosis; assay: Rat carotid artery thrombosis (occlusion time); format: in vivo; details: for occlusion time (OT): 30 min after administration
From the text: The carotid artery thrombosis in rats was induced by the method developed by Hladovec with minor modifications. At first, male SD Rats (180 ~ 220 g) were randomly divided into 5 groups (n = 8) and anesthetized by i.p. 20% ethyl urethane (1 g/kg). The right carotid artery was first carefully separated to give a 1.5 cm long open access, and then the stimulating electrode and the temperature electrode of BT 87–3 thrombosis radiometer (Baotou medical college, China) were linked to both ends of the artery. […] The time from the initiation of electric stimulation to the sudden drop of carotid temperature was recorded as occlusion time (OT), or thrombus formation time.

T1 sequence (P02768 25-609): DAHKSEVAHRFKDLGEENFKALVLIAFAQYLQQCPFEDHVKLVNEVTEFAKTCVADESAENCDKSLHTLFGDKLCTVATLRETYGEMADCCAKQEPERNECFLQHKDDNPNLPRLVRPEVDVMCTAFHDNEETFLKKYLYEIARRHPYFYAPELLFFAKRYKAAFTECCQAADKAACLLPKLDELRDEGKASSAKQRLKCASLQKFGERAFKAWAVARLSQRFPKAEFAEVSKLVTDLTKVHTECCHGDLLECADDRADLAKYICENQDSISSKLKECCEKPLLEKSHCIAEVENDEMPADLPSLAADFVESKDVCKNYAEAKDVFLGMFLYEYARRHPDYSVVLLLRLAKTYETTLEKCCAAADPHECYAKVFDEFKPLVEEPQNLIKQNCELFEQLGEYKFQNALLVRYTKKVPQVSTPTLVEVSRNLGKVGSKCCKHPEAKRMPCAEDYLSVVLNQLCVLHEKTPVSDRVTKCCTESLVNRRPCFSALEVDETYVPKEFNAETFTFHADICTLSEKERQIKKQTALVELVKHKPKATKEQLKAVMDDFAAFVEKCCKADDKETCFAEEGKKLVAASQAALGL

CCCCCCCCCCCCCCCCCC(=O)NCCCC[C@H](NC(=O)CNC(=O)[C@@H]1CCCN1C(=O)[C@H](CCCNC(=N)N)NC(=O)[C@@H]1CCCN1C(=O)[C@H](N)Cc1ccccc1)C(=O)NCC(=O)NCC(=O)N[C@@H](CCC(N)=O)C(=O)NCC(=O)N[C@@H](CC(=O)O)C(=O)N[C@@H](Cc1ccccc1)C(=O)N[C@@H](CCC(=O)O)C(=O)N1CCC[C@H]1C(=O)N[C@H](C(=O)N1CCC[C@H]1C(=O)N[C@@H](CCC(=O)O)C(=O)N[C@@H](CC(=O)O)C(=O)N[C@@H](C)C(=O)N[C@@H](Cc1ccc(O)cc1)C(=O)N[C@@H](CC(=O)O)C(=O)N[C@@H](CCC(=O)O)C(N)=O)[C@@H](C)CC [Peptide S2] (H-[dF]PRPGK(Stearoyl)GGQGDFEPIPEDAYDE-NH2; N-terminus assumed)
binding to HSA by intrinsic fluorescence quenching [1]: dose-dependent fluorescence quenching within the range of 2.5 ~ 16 μM
binding to surface-immobilized HSA (SPR) [2]: weakly bind to HSA
Ki (rat thrombin): 15.2 ± 0.18 nM
Weight of wet thrombosis (IVC thrombosis; 0.27 mg/kg (0.1 μmol/kg), 300 min after administration): 1.7 ± 0.2 mg
Weight of wet thrombosis (IVC thrombosis; 0.81 mg/kg (0.3 μmol/kg), 300 min after administration): 0 mg
Weight of wet thrombosis (IVC thrombosis; 1.61 mg/kg (0.6 μmol/kg), 300 min after administration): 0 mg
Weight of wet thrombosis (IVC thrombosis; 2.69 mg/kg (1.0 μmol/kg), 20 min after administration): 1.3 ± 1.8 mg
Weight of wet thrombosis (IVC thrombosis; 2.69 mg/kg (1.0 μmol/kg), 300 min after administration): 0 mg
antithrombotic activity (TT, PT, APTT) compared with references (rat plasma; 0.5 mg/kg peptide S2, 30 min after administration): superior to the 8 mg/kg hirulog-1 and 200 IU/kg heparin
TT, PT and APTT of rat blood (rat plasma; 30 min after administration, sublingual vein): significantly elevate
occlusion time (OT) ([3]; 0.5 mg/kg): 979.88 ± 150.61 s
occlusion time (OT) ([3]; 1.0 mg/kg): 1063.75 ± 61.12 s
duration of antithrombotic activity (OT) ([3]; 1.0 mg/kg, OT at different time points): more than 8 h
occlusion time (OT) ([3]; 2.0 mg/kg): 1207.25 ± 137.82

Reference: paper PMC4585835 (Scientific Reports, 2015)
